Source: ChEMBL document CHEMBL1201862, “PubChem BioAssay data set” (2004)
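How tested: cells in 96-well plates exposed to compound for 48 hours at five concentrations. The concentration for 50% growth inhibition is given as GI50.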 Calls of active or inactive are those of the source. Cut-off read from the data, not from the text of the source: active = GI50 up to about 1.1 µM and inactive = higher.

Experiments:
Assay in all cases: DTP human tumour cell line panel, 48 h
786-0 = system: 786-0
A498 = system: A498
A549 = system: A549
ACHN = system: ACHN
BT-549 = system: BT-549
CAKI-1 = system: CAKI-1
CCRF-CEM = system: CCRF-CEM
COLO 205 = system: COLO 205
DU-145 = system: DU-145
EKVX = system: EKVX
HCC 2998 = system: HCC 2998
HCT-116 = system: HCT-116
HCT-15 = system: HCT-15
HL-60 = system: HL-60
HOP-62 = system: HOP-62
HOP-92 = system: HOP-92
HT-29 = system: HT-29
Hs-578T = system: Hs-578T
IGROV-1 = system: IGROV-1
K562 = system: K562
KM12 = system: KM12
LOX IMVI = system: LOX IMVI
M14 = system: M14
MCF7 = system: MCF7
MDA-MB-231 = system: MDA-MB-231
MDA-MB-435 = system: MDA-MB-435
MDA-N = system: MDA-N
MOLT-4 = system: MOLT-4
Malme-3M = system: Malme-3M
NCI-H226 = system: NCI-H226
NCI-H23 = system: NCI-H23
NCI-H522 = system: NCI-H522
NCI/ADR-RES = system: NCI/ADR-RES
OVCAR-3 = system: OVCAR-3
OVCAR-4 = system: OVCAR-4
OVCAR-5 = system: OVCAR-5
OVCAR-8 = system: OVCAR-8
PC-3 = system: PC-3
RPMI-8226 = system: RPMI-8226
RXF 393 = system: RXF 393
SF-268 = system: SF-268
SF-295 = system: SF-295
SF-539 = system: SF-539
SK-MEL-28 = system: SK-MEL-28
SK-MEL-2 = system: SK-MEL-2
SK-MEL-5 = system: SK-MEL-5
SK-OV-3 = system: SK-OV-3
SN12C = system: SN12C
SNB-19 = system: SNB-19
SNB-75 = system: SNB-75
SR = system: SR
SW-620 = system: SW-620
T47D = system: T47D
TK-10 = system: TK-10
U-251 = system: U-251
UACC-257 = system: UACC-257
UACC-62 = system: UACC-62
UO-31 = system: UO-31
NCI-H460 = system: NCI-H460

O=S(=O)(O)c1ccc(Nc2ccnc3cc(Cl)ccc23)cc1
GI50 (786-0): > 100 µM (inactive)
GI50 (A498): > 100 µM (inactive)
GI50 (A549): > 100 µM (inactive)
GI50 (ACHN): > 100 µM (inactive)
GI50 (BT-549): > 100 µM (inactive)
GI50 (CAKI-1): > 100 µM (inactive)
GI50 (CCRF-CEM): > 100 µM (inactive)
GI50 (COLO 205): > 100 µM (inactive)
GI50 (DU-145): > 100 µM (inactive)
GI50 (EKVX): > 100 µM (inactive)
GI50 (HCC 2998): > 100 µM (inactive)
GI50 (HCT-116): > 100 µM (inactive)
GI50 (HCT-15): > 100 µM
GI50 (HL-60): > 100 µM (inactive)
GI50 (HOP-62): > 100 µM (inactive)
GI50 (HOP-92): > 100 µM (inactive)
GI50 (HT-29): > 100 µM (inactive)
GI50 (Hs-578T): > 100 µM (inactive)
GI50 (IGROV-1): > 100 µM (inactive)
GI50 (K562): > 100 µM (inactive)
GI50 (KM12): > 100 µM (inactive)
GI50 (LOX IMVI): > 100 µM (inactive)
GI50 (M14): > 100 µM (inactive)
GI50 (MCF7): > 100 µM (inactive)
GI50 (MDA-MB-231): > 100 µM (inactive)
GI50 (MDA-MB-435): > 100 µM (inactive)
GI50 (MDA-N): > 100 µM (inactive)
GI50 (MOLT-4): > 100 µM (inactive)
GI50 (Malme-3M): > 100 µM (inactive)
GI50 (NCI-H226): > 100 µM (inactive)
GI50 (NCI-H23): > 100 µM (inactive)
GI50 (NCI-H522): > 100 µM (inactive)
GI50 (NCI/ADR-RES): > 100 µM (inactive)
GI50 (OVCAR-3): > 100 µM (inactive)
GI50 (OVCAR-4): > 100 µM (inactive)
GI50 (OVCAR-5): > 100 µM (inactive)
GI50 (OVCAR-8): > 100 µM (inactive)
GI50 (PC-3): > 100 µM (inactive)
GI50 (RPMI-8226): > 100 µM (inactive)
GI50 (RXF 393): > 100 µM (inactive)
GI50 (SF-268): > 100 µM (inactive)
GI50 (SF-295): > 100 µM (inactive)
GI50 (SF-539): > 100 µM (inactive)
GI50 (SK-MEL-28): > 100 µM (inactive)
GI50 (SK-MEL-2): > 100 µM (inactive)
GI50 (SK-MEL-5): > 100 µM (inactive)
GI50 (SK-OV-3): > 100 µM (inactive)
GI50 (SN12C): > 100 µM (inactive)
GI50 (SNB-19): > 100 µM (inactive)
GI50 (SNB-75): > 100 µM (inactive)
GI50 (SR): > 100 µM (inactive)
GI50 (SW-620): > 100 µM (inactive)
GI50 (T47D): > 100 µM (inactive)
GI50 (TK-10): > 100 µM (inactive)
GI50 (U-251): > 100 µM (inactive)
GI50 (UACC-257): > 100 µM (inactive)
GI50 (UACC-62): > 100 µM (inactive)
GI50 (UO-31): > 100 µM (inactive)

COC(=O)C1(Cc2ccccc2)Cc2cc3c(cc2C1=O)CCC3 (stereo unspecified)
GI50 (786-0): 39.4 µM (inactive)
GI50 (A498): 28.2 µM (inactive)
GI50 (A549): 16.6 µM (inactive)
GI50 (ACHN): 49.8 µM (inactive)
GI50 (BT-549): 43.7 µM (inactive)
GI50 (CCRF-CEM): 22.6 µM (inactive)
GI50 (COLO 205): 19.5 µM (inactive)
GI50 (DU-145): 48.1 µM (inactive)
GI50 (EKVX): 25.3 µM (inactive)
GI50 (HCC 2998): 2.81 µM (inactive)
GI50 (HCT-116): 23.8 µM (inactive)
GI50 (HCT-15): 31.6 µM
GI50 (HL-60): 14.6 µM (inactive)
GI50 (HOP-62): 80.5 µM (inactive)
GI50 (HOP-92): 11.6 µM (inactive)
GI50 (HT-29): 12 µM (inactive)
GI50 (Hs-578T): 49.7 µM (inactive)
GI50 (IGROV-1): 36 µM (inactive)
GI50 (K562): 31.4 µM (inactive)
GI50 (KM12): 19.8 µM (inactive)
GI50 (LOX IMVI): 27 µM (inactive)
GI50 (M14): 20 µM (inactive)
GI50 (MCF7): 13.9 µM (inactive)
GI50 (MDA-MB-231): 43.6 µM (inactive)
GI50 (MDA-MB-435): 15.1 µM (inactive)
GI50 (MDA-N): 15 µM (inactive)
GI50 (MOLT-4): 17.1 µM (inactive)
GI50 (Malme-3M): 22.5 µM (inactive)
GI50 (NCI-H226): 27.4 µM (inactive)
GI50 (NCI-H23): 56.2 µM (inactive)
GI50 (NCI-H460): 4.44 µM (inactive)
GI50 (NCI-H522): 21.2 µM (inactive)
GI50 (NCI/ADR-RES): 30.5 µM (inactive)
GI50 (OVCAR-3): 40 µM (inactive)
GI50 (OVCAR-4): 33.7 µM (inactive)
GI50 (OVCAR-5): 58.9 µM (inactive)
GI50 (OVCAR-8): 31.2 µM (inactive)
GI50 (PC-3): 26.1 µM (inactive)
GI50 (RPMI-8226): 23.1 µM (inactive)
GI50 (RXF 393): 36.8 µM (inactive)
GI50 (SF-268): 22.2 µM (inactive)
GI50 (SF-295): 38.2 µM (inactive)
GI50 (SF-539): 43.2 µM (inactive)
GI50 (SK-MEL-28): 46.2 µM (inactive)
GI50 (SK-MEL-2): 18.3 µM (inactive)
GI50 (SK-MEL-5): 16.6 µM (inactive)
GI50 (SK-OV-3): 41.1 µM (inactive)
GI50 (SN12C): 37.3 µM (inactive)
GI50 (SNB-19): 47.1 µM (inactive)
GI50 (SNB-75): 27.7 µM (inactive)
GI50 (SR): 21.9 µM (inactive)
GI50 (SW-620): 29.6 µM (inactive)
GI50 (T47D): 13.4 µM (inactive)
GI50 (TK-10): 64 µM (inactive)
GI50 (U-251): 33.6 µM (inactive)
GI50 (UACC-257): 36.9 µM (inactive)
GI50 (UACC-62): 33.4 µM (inactive)
GI50 (UO-31): 34.5 µM (inactive)
